Biological target: T1, ERR1 (also known as ERR-α or ERR-1) (Homo sapiens, UniProt P11474)
T1 sequence (P11474 193-421 limits assumed): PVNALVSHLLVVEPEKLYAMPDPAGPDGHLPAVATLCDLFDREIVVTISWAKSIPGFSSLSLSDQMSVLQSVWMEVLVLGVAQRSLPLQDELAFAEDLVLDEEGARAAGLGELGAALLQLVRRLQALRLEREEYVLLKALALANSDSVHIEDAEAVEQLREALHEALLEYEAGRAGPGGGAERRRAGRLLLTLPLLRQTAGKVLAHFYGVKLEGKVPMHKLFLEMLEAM
Test: TR-FRET assay (disruption of co-activator peptide binding to ERR1 LBD)
Assay type: biochemical
Settings: 6 nM 6His-ERR1LBD, 6 nM GST-SRC-2 peptide; average of 3 independent experiments
Method in brief: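 His-tagged ERR1 ligand-binding domain and GST-labelled SRC-2 peptide, each 6 nM, equilibrated at 25° C for 4-18 h in Tris pH 8/Hepes/KCl/DTT/delipidated BSA buffer. Compound-induced loss of co-activator binding read as Eu cryptate→XL665 energy transfer; values from hyperbolic curve fits averaged over 3 independent runs.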

Structure (SMILES)	EC50 [nM]
CC1(C)CC(N2C(=O)S/C(=C\c3ccc4c(cnn4Cc4ccc(Cl)cc4C(F)(F)F)c3)C2=O)CC(C)(C)N1 [Compound 175, (5Z)-5-({1-[4-Chloro-2-(trifluoromethyl)benzyl]-1H-indazol-5-yl}methylidene)-3-(2,2,6,6-tetramethylpiperidin-4-yl)-1,3-thiazolidine-2,4-dione]	35
N[C@H]1CC[C@H](N2C(=O)S/C(=C\c3ccc4c(cnn4Cc4ccc(Cl)cc4C(F)(F)F)c3)C2=O)CC1 [Compound 176, (5Z)-3-(trans-4-Aminocyclohexyl)-5-({1-[4-chloro-2-(trifluoromethyl)benzyl]-1H-indazol-5-yl}methylidene)-1,3-thiazolidine-2,4-dione]	58
COC(=O)CN1C(=O)S/C(=C\c2ccc3c(cnn3[C@@H]3CCc4cc(Cl)ccc43)c2)C1=O [Compound 177, Methyl [(5Z)-5-({1-[(1R)-5-chloro-2,3-dihydro-1H-inden-1-yl]-1H-indazol-5-yl}methylidene)-2,4-dioxo-1,3-thiazolidin-3-yl]acetate]	6000
O=C1S/C(=C\c2ccc3c(cnn3[C@@H]3CCc4cc(Cl)ccc43)c2)C(=O)N1CCN1CCCC1 [Compound 178, (5Z)-5-({1-[(1R)-5-Chloro-2,3-dihydro-1H-inden-1-yl]-1H-indazol-5-yl}methylidene)-3-(2-pyrrolidin-1-ylethyl)-1,3-thiazolidine-2,4-dione]	9700
O=C(O)CN1C(=O)S/C(=C\c2ccc3c(cnn3[C@@H]3CCc4cc(Cl)ccc43)c2)C1=O [Compound 179, [(5Z)-5-({1-[(1R)-5-Chloro-2,3-dihydro-1H-inden-1-yl]-1H-indazol-5-yl}methylidene)-2,4-dioxo-1,3-thiazolidin-3-yl]acetic acid]	3450
COC(=O)[C@@H]1C[C@@H](N2C(=O)S/C(=C\c3ccc4c(cnn4Cc4ccc(Cl)cc4C(F)(F)F)c3)C2=O)CN1 [Compound 180, Methyl (4R)-4-[(5Z)-5-({1-[4-chloro-2-(trifluoromethyl)benzyl]-1H-indazol-5-yl}methylidene)-2,4-dioxo-1,3-thiazolidin-3-yl]-L-prolinate]	32
O=C(O)[C@@H]1C[C@@H](N2C(=O)S/C(=C\c3ccc4c(cnn4Cc4ccc(Cl)cc4C(F)(F)F)c3)C2=O)CN1 [Compound 181, (4R)-4-[(5Z)-5-({1-[4-Chloro-2-(trifluoromethyl)benzyl]-1H-indazol-5-yl}methylidene)-2,4-dioxo-1,3-thiazolidin-3-yl]-L-proline]	25
O=C1S/C(=C\c2ccc3c(cnn3Cc3ccc(Cl)cc3C(F)(F)F)c2)C(=O)N1C[C@@H]1C[C@@H](O)CN1 [Compound 182, (5Z)-5-({1-[4-Chloro-2-(trifluoromethyl)benzyl]-1H-indazol-5-yl}methylidene)-3-{[(2S,4R)-4-hydroxypyrrolidin-2-yl]methyl}-1,3-thiazolidine-2,4-dione]	96
O=C1S/C(=C\c2ccc3c(cnn3Cc3ccc(Cl)cc3C(F)(F)F)c2)C(=O)N1C[C@@H]1CNCCO1 [Compound 183, (5Z)-5-({1-[4-Chloro-2-(trifluoromethyl)benzyl]-1H-indazol-5-yl}methylidine)-3-[(2S)-morpholin-2-ylmethyl]-1,3-thiazolidine-2,4-dione]	170
O=C1S/C(=C\c2ccc3c(cnn3Cc3ccc(Cl)cc3C(F)(F)F)c2)C(=O)N1C[C@@H]1C[C@@H](F)CN1 [Compound 184, (5Z)-5-({1-[4-Chloro-2-(trifluoromethyl)benzyl]-1H-indazol-5-yl}methylidene)-3-{[(2S,4R)-4-fluoropyrrolidin-2-yl]methyl}-1,3-thiazolidine-2,4-dione]	140
CS(=O)(=O)NC(=O)CN1C(=O)S/C(=C\c2ccc3c(cnn3Cc3ccc(F)cc3C(F)(F)F)c2)C1=O [Compound 185, 2-[(5Z)-5-({1-[4-Fluoro-2-(trifluoromethyl)benzyl]-1H-indazol-5-yl}methylidene)-2,4-dioxo-1,3-thiazolidin-3-yl]-N-(methylsulfonyl)acetamide]	277
O=C1S/C(=C\c2ccc3c(cnn3Cc3ccc(Cl)cc3C(F)(F)F)c2)C(=O)N1C[C@@H]1C[C@@H](O)CN1CCO [Compound 186, (5Z)-5-({1-[4-Chloro-2-(trifluoromethyl)benzyl]-1H-indazol-5-yl}methylidene)-3-{[(2S,4R)-4-hydroxy-1-(2-hydroxyethyl)pyrrolidin-2-yl]methyl}-1,3-thiazolidine-2,4-dione]	54
O=C1S/C(=C\c2ccc3c(cnn3Cc3ccc(Cl)cc3C(F)(F)F)c2)C(=O)N1C[C@@H]1CN(CCO)CCO1 [Compound 187, (5Z)-5-({1-[4-Chloro-2-(trifluoromethyl)benzyl]-1H-indazol-5-yl}methylidene)-3-{[(2S)-4-(2-hydroxyethyl)morpholin-2-yl]methyl}-1,3-thiazolidine-2,4-dione]	27
COCCN1C[C@H](O)C[C@H]1CN1C(=O)S/C(=C\c2ccc3c(cnn3Cc3ccc(Cl)cc3C(F)(F)F)c2)C1=O [Compound 188, (5Z)-5-({1-[4-Chloro-2-(trifluoromethyl)benzyl]-1H-indazol-5-yl}methylidene)-3-{[(2S,4R)-4-hydroxy-1-(2-methoxyethyl)pyrrolidin-2-yl]methyl}-1,3-thiazolidine-2,4-dione]	60
COCCN1CCO[C@H](CN2C(=O)S/C(=C\c3ccc4c(cnn4Cc4ccc(Cl)cc4C(F)(F)F)c3)C2=O)C1 [Compound 189, (5Z)-5-({1-[4-Chloro-2-(trifluoromethyl)benzyl]-1H-indazol-5-yl}methylidene)-3-{[(2S)-4-(2-methoxyethyl)morpholin-2-yl]methyl}-1,3-thiazolidine-2,4-dione]	160
COCCN1C[C@H](F)C[C@H]1CN1C(=O)S/C(=C\c2ccc3c(cnn3Cc3ccc(Cl)cc3C(F)(F)F)c2)C1=O [Compound 190, (5Z)-5-({1-[4-Chloro-2-(trifluoromethyl)benzyl]-1H-indazol-5-yl}methylidene)-3-{[(2S,4R)-4-fluoro-1-(2-methoxyethyl)pyrrolidin-2-yl]methyl}-1,3-thiazolidine-2,4-dione]	410
CN1C[C@H](O)C[C@H]1CN1C(=O)S/C(=C\c2ccc3c(cnn3Cc3ccc(Cl)cc3C(F)(F)F)c2)C1=O [Compound 191, (5Z)-5-({1-[4-Chloro-2-(trifluoromethyl)benzyl]-1H-indazol-5-yl}methylidene)-3-{[(2S,4R)-4-hydroxy-1-methylpyrrolidin-2-yl]methyl}-1,3-thiazolidine-2,4-dione]	19
CN1CCO[C@H](CN2C(=O)S/C(=C\c3ccc4c(cnn4Cc4ccc(Cl)cc4C(F)(F)F)c3)C2=O)C1 [Compound 192, (5Z)-5-({1-[4-Chloro-2-(trifluoromethyl)benzyl]-1H-indazol-5-yl}methylidene)-3-{[(2S)-4-methylmorpholin-2-yl]methyl}-1,3-thiazolidine-2,4-dione]	45
CN1C[C@H](F)C[C@H]1CN1C(=O)S/C(=C\c2ccc3c(cnn3Cc3ccc(Cl)cc3C(F)(F)F)c2)C1=O [Compound 193, (5Z)-5-({1-[4-Chloro-2-(trifluoromethyl)benzyl]-1H-indazol-5-yl}methylidene)-3-{[(2S,4R)-4-fluoro-1-methylpyrrolidin-2-yl]methyl}-1,3-thiazolidine-2,4-dione]	160
NC1(CN2C(=O)S/C(=C\c3ccc4c(cnn4Cc4ccc(Cl)cc4C(F)(F)F)c3)C2=O)CC1 [Compound 194, (5Z)-3-[(1-Aminocyclopropyl)methyl]-5-({1-[4-chloro-2-(trifluoromethyl)benzyl]-1H-indazol-5-yl}methylidene)-1,3-thiazolidine-2,4-dione]	34
O=C1S/C(=C\c2ccc3c(cnn3Cc3ccc(C(F)(F)F)cc3C(F)(F)F)c2)C(=O)N1C[C@@H]1CNCCO1 [Compound 195, (5Z)-5-({1-[2,4-Bis(trifluoromethyl)benzyl]-1H-indazol-5-yl}methylidene)-3-[(2S)-morpholin-2-ylmethyl]-1,3-thiazolidine-2,4-dione]	61
O=C1S/C(=C\c2ccc3c(cnn3Cc3ccc(C(F)(F)F)cc3C(F)(F)F)c2)C(=O)N1C[C@H]1COCCN1 [Compound 196, (5Z)-5-({1-[2,4-Bis(trifluoromethyl)benzyl]-1H-indazol-5-yl}methylidene)-3-[(3S)-morpholin-3-ylmethyl]-1,3-thiazolidine-2,4-dione]	50
O=C1S/C(=C\c2ccc3c(cnn3Cc3ccc(C(F)(F)F)cc3C(F)(F)F)c2)C(=O)N1C[C@@H]1COCCN1 [Compound 197, (5Z)-5-({1-[2,4-Bis(trifluoromethyl)benzyl]-1H-indazol-5-yl}methylidene)-3-[(3R)-morpholin-3-ylmethyl]-1,3-thiazolidine-2,4-dione]	65
O=C1S/C(=C\c2ccc3c(cnn3Cc3ccc(Cl)cc3C(F)(F)F)c2)C(=O)N1C[C@@H]1COCCN1 [Compound 198, (5Z)-5-({1-[4-Chloro-2-(trifluoromethyl)benzyl]-1H-indazol-5-yl}methylidene)-3-[(3R)-morpholin-3-ylmethyl]-1,3-thiazolidine-2,4-dione]	31
O=C1S/C(=C\c2ccc3c(cnn3Cc3ccc(Cl)cc3C(F)(F)F)c2)C(=O)N1C[C@@H]1CN2CCC[C@H]2CO1 [Compound 203, (5Z)-5-({1-[4-Chloro-2-(trifluoromethyl)benzyl]-1H-indazol-5-yl}methylidene)-3-[(3S,8aS)-hexahydro-1H-pyrrolo[2,1-c] [1,4]oxazin-3-ylmethyl]-1,3-thiazolidine-2,4-dione]	53

Source: US8796256B2 (Janssen Pharmaceutica NV, priority 2010, dated 2014)
